From paper PMC7866801, “Design and Synthesis of N-Substituted 3,4-Pyrroledicarboximides as Potential Anti-Inflammatory Agents” (International Journal of Molecular Sciences, 2021)

Key:
COX-1 = target: T1, COX-1 (Ovis aries, UniProt P05979); experiment: colorimetric COX peroxidase inhibitor screening kit, […] nm; format: biochemical; conditions: tested at 100 µM only, 2 min, RT; unreliable
T1 construct: gene PTGS1; homodimer
T1 sequence (P05979 25-600): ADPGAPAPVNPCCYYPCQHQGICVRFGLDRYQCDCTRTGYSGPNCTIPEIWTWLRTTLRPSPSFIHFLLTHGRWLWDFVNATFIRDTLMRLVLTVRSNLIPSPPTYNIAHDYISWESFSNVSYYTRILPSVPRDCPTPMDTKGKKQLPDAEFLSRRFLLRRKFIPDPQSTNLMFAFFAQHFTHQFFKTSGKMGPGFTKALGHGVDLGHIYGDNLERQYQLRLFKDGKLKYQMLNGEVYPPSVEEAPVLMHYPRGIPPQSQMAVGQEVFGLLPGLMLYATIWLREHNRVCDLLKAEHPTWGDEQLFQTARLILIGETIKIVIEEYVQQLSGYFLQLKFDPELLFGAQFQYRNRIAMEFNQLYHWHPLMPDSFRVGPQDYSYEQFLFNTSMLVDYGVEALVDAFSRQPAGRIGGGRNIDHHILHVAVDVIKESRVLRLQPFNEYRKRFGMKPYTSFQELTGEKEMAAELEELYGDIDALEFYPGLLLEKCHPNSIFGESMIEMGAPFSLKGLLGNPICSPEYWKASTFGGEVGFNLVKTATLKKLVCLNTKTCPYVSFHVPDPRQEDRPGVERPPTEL

COX-2 = target: T2, COX-2 (Homo sapiens, UniProt P35354); experiment: as above; format: biochemical; conditions: tested at 100 µM only, 2 min, RT; unreliable
T2 construct: gene PTGS2; homodimer
T2 sequence (P35354 18-604): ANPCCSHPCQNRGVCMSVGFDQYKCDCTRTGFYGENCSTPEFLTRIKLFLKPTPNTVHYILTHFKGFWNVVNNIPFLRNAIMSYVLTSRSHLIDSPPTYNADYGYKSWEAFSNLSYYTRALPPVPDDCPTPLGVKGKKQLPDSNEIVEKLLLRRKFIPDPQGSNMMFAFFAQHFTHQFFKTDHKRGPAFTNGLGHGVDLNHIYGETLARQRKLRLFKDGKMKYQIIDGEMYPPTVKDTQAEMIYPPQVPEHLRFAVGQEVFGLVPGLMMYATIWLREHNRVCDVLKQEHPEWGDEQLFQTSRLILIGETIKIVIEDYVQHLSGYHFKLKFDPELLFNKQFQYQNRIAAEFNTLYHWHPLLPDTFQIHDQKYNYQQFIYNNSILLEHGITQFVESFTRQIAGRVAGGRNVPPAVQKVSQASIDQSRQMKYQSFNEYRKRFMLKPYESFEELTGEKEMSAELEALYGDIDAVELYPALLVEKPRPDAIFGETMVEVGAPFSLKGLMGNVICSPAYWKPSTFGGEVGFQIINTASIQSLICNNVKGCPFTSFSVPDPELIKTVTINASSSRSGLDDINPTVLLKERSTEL

Compound	Cyclooxygenase Inhibition Assay IC50 [μM] / COX-1 (COX-1) [µM]	Cyclooxygenase Inhibition Assay IC50 [μM] / COX-2 (COX-2) [µM]
Cc1c2c(c(C)n1-c1ccccc1)C(=O)N(CN1CCNCC1)C2=O [2k, 4,6-dimethyl-5-phenyl-2-[(piperazinyl)methyl]pyrrolo[3,4-c]pyrrole-1,3(2H,5H)-dione]	83.47 ± 0.05	58.43 ± 0.06
CCCCn1c(C)c2c(c1C)C(=O)N(CN1CCN(CCO)CC1)C2=O [2j, 4,6-dimethyl-5-n-butyl-2-{[4-hydroxyethyl-1-piperazinyl]methyl}pyrrolo[3,4-c]pyrrole-1,3(2H,5H)-dione]	84.90 ± 0.05	59.77 ± 0.11
CCCCn1c(C)c2c(c1C)C(=O)N(CN1CCC(O)(c3ccc(Cl)cc3)CC1)C2=O [2o, 4,6-dimethyl-5-n-butyl-2-{[4-(p-chlorophenyl)-4-hydroxypiperidin-1-yl]methyl}pyrrolo[3,4-c]pyrrole-1,3(2H,5H)-dione]	78.25 ± 0.10	58.38 ± 0.16
CCCCn1c(C)c2c(c1C)C(=O)N(CN1CCC(c3ccccc3)CC1)C2=O [2m, 4,6-dimethyl-5-n-butyl-2-[(4-phenyl-1-piperidinyl)methyl]pyrrolo[3,4-c]pyrrole-1,3(2H,5H)-dione]	88.15 ± 0.02	60.39 ± 0.02
Cc1c2c(c(C)n1-c1ccccc1)C(=O)N(CN1CCN(c3ccc(Br)cc3)CC1)C2=O [2a, 4,6-dimethyl-5-phenyl-2{[4-(p-bromophenyl)-1-piperazinyl]methyl}pyrrolo[3,4-c]pyrrole-1,3(2H,5H)-dione]	87.90 ± 0.03	60.85 ± 0.02
Cc1c2c(c(C)n1-c1ccccc1Cl)C(=O)N(CN1CCN(C3CCCCC3)CC1)C2=O [2h, 4,6-dimethyl-5-(o-chlorophenyl)-2-[(4-cyclohexyl-1-piperazinyl)methyl]pyrrolo[3,4-c]pyrrole-1,3(2H,5H)-dione]	76.54 ± 0.06	59.37 ± 0.05
CCCCn1c(C)c2c(c1C)C(=O)N(CN1CCC(O)(c3ccc(Br)cc3)CC1)C2=O [2n, 4,6-dimethyl-5-n-butyl-2-{[4-(p-bromophenyl)-4-hydroxypiperidin-1-yl]methyl}pyrrolo[3,4-c]pyrrole-1,3(2H,5H)-dione]	77.59 ± 0.09	57.65 ± 0.04
Cc1c2c(c(C)n1-c1ccccc1)C(=O)N(CN1CCN(c3ccccc3C#N)CC1)C2=O [2c, 4,6-dimethyl-5-phenyl-2{[4-(o-cyanophenyl)-1-piperazinyl]methyl}pyrrolo[3,4-c]pyrrole-1,3(2H,5H)-dione]	94.56 ± 0.02	61.53 ± 0.09
Cc1c2c(c(C)n1-c1ccccc1)C(=O)N(CN1CCN(c3cccc(C(F)(F)F)c3)CC1)C2=O [2d, 4,6-dimethyl-5-phenyl-2{[4-(m-trifluoromethylphenyl)-1-piperazinyl]methyl}pyrrolo[3,4-c]pyrrole-1,3(2H,5H)-dione]	77.46 ± 0.06	60.24 ± 0.03
Cc1c2c(c(C)n1-c1ccccc1Cl)C(=O)N(CN1CCN(c3ccc(Br)cc3)CC1)C2=O [2b, 4,6-dimethyl-5-(o-chlorophenyl)-2-{[4-(p-bromophenyl)-1-piperazinyl]methyl}pyrrolo[3,4-c]pyrrole-1,3(2H,5H)-dione]	94.17 ± 0.04	61.46 ± 0.02
CCCCn1c(C)c2c(c1C)C(=O)N(CN1CCN(c3ncccn3)CC1)C2=O [2f, 4,6-dimethyl-5-n-butyl-2-{[4-(2-pyrimidinyl)piperazin-1-yl]methyl}pyrrolo[3,4-c]pyrrole-1,3(2H,5H)-dione]	80.51 ± 0.06	58.87 ± 0.08
Cc1c2c(c(C)n1-c1ccccc1)C(=O)N(CN1CCN(C3CCCCC3)CC1)C2=O [2g, 4,6-dimethyl-5-phenyl-2-[(4-cyclohexyl-1-piperazinyl)methyl]pyrrolo[3,4-c]pyrrole-1,3(2H,5H)-dione]	80.25 ± 0.06	59.92 ± 0.05
CCCCn1c(C)c2c(c1C)C(=O)N(CN1CCC(O)(Cc3ccccc3)CC1)C2=O [2p, 4,6-dimethyl-5-n-butyl-2-{[4-benzyl-4-hydroxypiperidin-1-yl]methyl}pyrrolo[3,4-c]pyrrole-1,3(2H,5H)-dione]	82.94 ± 0.04	59.37 ± 0.07
Cc1c2c(c(C)n1-c1ccccc1)C(=O)N(CN1CCOCC1)C2=O [2l, 4,6-dimethyl-5-phenyl-2-[(morpholinyl)methyl]pyrrolo[3,4-c]pyrrole-1,3(2H,5H)-dione]	82.72 ± 0.04	59.33 ± 0.09
CCCCn1c(C)c2c(c1C)C(=O)N(CN1CCN(C3CCCCC3)CC1)C2=O [2i, 4,6-dimethyl-5-n-butyl-2-[(4-cyclohexyl-1-piperazinyl)methyl]pyrrolo[3,4-c]pyrrole-1,3(2H,5H)-dione]	79.87 ± 0.07	60.96 ± 0.04
CCCCn1c(C)c2c(c1C)C(=O)N(CN1CCN(c3ccc(C)cc3)CC1)C2=O [2e, 4,6-dimethyl-5-n-butyl-2-{[4-(p-methylphenyl)-1-piperazinyl]methyl}pyrrolo[3,4-c]pyrrole-1,3-(2H,5H)-dione]	78.73 ± 0.06	60.75 ± 0.02
